The text below walks through data of ChEMBL document CHEMBL1150977, “A quantitative analysis of kinase inhibitor selectivity” (Nat Biotechnol, 2008).

For experiment [1], the target named is MAP kinase-interacting serine/threonine-protein kinase 2 (Homo sapiens, UniProt Q9HBH9).
For experiment [2], the target named is T1, Serine/threonine-protein kinase RIO1 (Homo sapiens, UniProt Q9BRS2).
T1 sequence (Q9BRS2 whole entry): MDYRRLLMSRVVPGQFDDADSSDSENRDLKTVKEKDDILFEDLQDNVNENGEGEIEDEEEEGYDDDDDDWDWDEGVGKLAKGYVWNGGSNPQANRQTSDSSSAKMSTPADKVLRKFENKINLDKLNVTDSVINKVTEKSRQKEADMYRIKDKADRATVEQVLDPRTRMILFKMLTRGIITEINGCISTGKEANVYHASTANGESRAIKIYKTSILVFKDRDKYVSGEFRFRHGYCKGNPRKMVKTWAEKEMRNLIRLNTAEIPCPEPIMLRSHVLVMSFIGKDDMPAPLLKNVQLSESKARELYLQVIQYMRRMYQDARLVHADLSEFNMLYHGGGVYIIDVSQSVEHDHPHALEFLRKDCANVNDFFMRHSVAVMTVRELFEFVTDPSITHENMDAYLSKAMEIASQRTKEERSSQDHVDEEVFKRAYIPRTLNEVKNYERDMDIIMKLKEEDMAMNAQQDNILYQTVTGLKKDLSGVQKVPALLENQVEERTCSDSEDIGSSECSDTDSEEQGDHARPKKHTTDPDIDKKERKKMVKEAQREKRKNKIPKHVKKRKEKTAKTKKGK

The target in experiment [3] is Angiopoietin-1 receptor (Homo sapiens, UniProt Q02763).
Experiment [4] has as its target T2, Mitogen-activated protein kinase kinase kinase 5 (Homo sapiens, UniProt Q99683).
T2 sequence (Q99683 whole entry): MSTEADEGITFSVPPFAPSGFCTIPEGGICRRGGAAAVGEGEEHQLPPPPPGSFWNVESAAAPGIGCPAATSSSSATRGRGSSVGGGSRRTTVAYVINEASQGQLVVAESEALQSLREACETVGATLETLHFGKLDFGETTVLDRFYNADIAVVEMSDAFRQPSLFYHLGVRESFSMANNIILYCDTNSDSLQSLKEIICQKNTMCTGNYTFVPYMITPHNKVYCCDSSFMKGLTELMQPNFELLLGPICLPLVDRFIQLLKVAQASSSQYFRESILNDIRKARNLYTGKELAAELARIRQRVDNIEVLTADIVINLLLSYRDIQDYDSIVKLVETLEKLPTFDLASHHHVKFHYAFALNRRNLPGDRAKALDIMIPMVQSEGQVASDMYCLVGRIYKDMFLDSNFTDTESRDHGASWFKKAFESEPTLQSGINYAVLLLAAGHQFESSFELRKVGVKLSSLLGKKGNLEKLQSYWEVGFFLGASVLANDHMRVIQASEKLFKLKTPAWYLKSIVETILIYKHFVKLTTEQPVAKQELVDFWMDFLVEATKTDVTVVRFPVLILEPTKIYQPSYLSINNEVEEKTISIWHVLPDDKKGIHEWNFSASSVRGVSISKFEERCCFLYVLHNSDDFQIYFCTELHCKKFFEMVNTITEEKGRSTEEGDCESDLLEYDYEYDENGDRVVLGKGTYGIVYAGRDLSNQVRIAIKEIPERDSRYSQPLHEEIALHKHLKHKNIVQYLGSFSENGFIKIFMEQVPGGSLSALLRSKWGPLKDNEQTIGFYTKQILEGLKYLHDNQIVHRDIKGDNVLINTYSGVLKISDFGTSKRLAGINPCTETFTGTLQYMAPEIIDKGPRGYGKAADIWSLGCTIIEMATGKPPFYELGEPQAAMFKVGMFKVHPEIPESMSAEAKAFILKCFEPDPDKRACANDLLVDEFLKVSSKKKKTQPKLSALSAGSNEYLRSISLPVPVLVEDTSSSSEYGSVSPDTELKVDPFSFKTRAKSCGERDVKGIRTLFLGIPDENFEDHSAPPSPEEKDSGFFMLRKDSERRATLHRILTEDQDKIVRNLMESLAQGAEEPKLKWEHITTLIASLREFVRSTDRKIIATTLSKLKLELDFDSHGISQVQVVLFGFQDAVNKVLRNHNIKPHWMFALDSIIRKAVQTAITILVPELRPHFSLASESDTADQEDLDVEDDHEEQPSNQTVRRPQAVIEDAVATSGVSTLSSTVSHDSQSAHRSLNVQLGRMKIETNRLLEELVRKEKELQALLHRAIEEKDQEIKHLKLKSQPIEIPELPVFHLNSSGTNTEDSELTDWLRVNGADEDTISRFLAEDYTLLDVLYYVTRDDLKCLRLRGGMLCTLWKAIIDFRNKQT

Experiment [5] concerns the target T3, Mitogen-activated protein kinase 12 (Homo sapiens, UniProt P53778).
T3 sequence (P53778 whole entry): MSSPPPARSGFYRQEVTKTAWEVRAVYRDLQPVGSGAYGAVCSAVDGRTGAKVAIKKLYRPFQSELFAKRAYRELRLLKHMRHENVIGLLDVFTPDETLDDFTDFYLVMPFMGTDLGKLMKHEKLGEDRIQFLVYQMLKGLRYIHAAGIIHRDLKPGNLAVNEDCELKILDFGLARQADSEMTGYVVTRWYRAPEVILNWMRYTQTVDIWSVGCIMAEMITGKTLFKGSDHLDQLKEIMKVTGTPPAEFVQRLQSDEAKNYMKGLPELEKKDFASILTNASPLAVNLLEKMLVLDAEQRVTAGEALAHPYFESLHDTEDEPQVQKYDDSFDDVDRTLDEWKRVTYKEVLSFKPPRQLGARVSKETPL

The target in experiment [6] is T4, Serine/threonine-protein kinase Nek2 (Homo sapiens, UniProt P51955).
T4 sequence (P51955 whole entry): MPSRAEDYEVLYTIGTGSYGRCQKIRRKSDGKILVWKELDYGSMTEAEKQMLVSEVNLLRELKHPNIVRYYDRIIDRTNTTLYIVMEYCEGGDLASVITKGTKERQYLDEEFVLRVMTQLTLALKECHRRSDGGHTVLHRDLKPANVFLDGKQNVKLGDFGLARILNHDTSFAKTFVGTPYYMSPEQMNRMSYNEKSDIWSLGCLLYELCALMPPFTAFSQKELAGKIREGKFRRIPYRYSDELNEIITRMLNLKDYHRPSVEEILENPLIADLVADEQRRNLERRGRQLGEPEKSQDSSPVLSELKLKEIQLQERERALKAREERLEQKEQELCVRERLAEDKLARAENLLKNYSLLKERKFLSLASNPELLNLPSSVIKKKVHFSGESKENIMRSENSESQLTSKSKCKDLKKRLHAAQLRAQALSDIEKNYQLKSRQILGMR

Chain of MAP kinase-interacting serine/threonine-protein kinase 2 (Q9HBH9 whole entry): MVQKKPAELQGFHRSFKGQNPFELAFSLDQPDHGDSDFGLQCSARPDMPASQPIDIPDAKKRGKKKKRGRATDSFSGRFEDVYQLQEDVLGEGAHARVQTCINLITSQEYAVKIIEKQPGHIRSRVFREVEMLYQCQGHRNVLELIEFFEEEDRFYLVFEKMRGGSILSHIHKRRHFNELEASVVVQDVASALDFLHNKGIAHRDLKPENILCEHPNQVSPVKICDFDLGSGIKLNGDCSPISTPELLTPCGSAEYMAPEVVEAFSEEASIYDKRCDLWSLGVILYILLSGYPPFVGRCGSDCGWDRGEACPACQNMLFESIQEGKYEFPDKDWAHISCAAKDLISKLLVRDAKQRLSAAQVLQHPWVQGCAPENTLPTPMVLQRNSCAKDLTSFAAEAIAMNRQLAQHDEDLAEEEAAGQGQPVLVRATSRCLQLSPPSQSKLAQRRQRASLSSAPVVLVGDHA
Chain of Angiopoietin-1 receptor (Q02763 whole entry): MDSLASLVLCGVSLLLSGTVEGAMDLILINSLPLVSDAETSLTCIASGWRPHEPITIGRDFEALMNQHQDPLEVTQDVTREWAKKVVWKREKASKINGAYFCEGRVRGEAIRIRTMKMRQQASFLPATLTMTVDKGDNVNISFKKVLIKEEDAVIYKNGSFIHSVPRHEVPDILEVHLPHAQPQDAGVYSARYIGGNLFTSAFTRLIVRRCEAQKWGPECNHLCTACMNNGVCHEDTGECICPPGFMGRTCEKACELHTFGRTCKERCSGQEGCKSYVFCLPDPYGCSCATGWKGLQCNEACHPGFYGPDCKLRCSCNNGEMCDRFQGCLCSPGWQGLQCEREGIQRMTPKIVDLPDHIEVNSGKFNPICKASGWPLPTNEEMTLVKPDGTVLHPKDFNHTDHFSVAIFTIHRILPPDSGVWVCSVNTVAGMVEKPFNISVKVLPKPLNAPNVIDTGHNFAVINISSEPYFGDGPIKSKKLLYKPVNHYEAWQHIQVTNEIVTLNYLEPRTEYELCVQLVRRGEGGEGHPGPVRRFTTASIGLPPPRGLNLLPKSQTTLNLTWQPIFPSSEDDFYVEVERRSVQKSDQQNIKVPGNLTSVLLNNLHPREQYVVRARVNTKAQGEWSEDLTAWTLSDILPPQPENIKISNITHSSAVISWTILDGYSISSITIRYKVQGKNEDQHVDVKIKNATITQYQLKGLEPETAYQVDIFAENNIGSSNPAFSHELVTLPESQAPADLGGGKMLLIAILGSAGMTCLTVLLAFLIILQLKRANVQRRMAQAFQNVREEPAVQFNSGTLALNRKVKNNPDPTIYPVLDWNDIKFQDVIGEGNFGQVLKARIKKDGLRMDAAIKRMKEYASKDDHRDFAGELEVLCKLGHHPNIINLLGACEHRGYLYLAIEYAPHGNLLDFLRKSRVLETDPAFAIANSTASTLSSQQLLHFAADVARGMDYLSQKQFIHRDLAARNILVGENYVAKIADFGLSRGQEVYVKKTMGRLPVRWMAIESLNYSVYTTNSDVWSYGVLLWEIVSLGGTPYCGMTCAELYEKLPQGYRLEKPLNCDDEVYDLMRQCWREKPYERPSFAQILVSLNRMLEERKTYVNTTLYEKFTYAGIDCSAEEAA

Broadly, the Kd is the equilibrium constant for the complex coming apart. A low value points to higher affinity. With `COCC(=O)NC/C=C/c1ccc2ncnc(Nc3ccc(Oc4ccc(C)nc4)c(C)c3)c2c1` [CP-724714], the Kd is 0.84 µM in experiment [1]; greater than 10 µM in experiment [2]; greater than 10 µM in experiment [3]; greater than 10 µM in experiment [4]; greater than 10 µM in experiment [5]; greater than 10 µM in experiment [6].
With `Nc1nc(Nc2ccc(S(N)(=O)=O)cc2)nn1C(=O)c1c(F)cccc1F` [JNJ-7706621], the Kd in experiment [1], in experiment [4] and in experiment [5] was greater than 10 µM each time.
With `CCOc1cc2ncc(C#N)c(Nc3ccc(F)c(Cl)c3)c2cc1NC(=O)/C=C/CN(C)C` [PELITINIB], the Kd in experiment [1], in experiment [2], in experiment [3], in experiment [4] and in experiment [5] was greater than 10 µM each time.
Consider `Oc1ccc(-c2nc(-c3ccncc3)c(-c3ccc(F)cc3)[nH]2)cc1` [SB-202190], for which the Kd in experiment [1], in experiment [2], in experiment [3], in experiment [4] and in experiment [6] was greater than 10 µM in each case.
On to `NC(=O)c1ccc(-c2nc(-c3ccc4c(c3)OCO4)c(-c3ccccn3)[nH]2)cc1` [SB-431542], for which the dissociation constant (Kd) in experiment [1], in experiment [2], in experiment [3], in experiment [4], in experiment [5] and in experiment [6] was greater than 10 µM in each case.
